Consider two compounds from US4698354A, “4-methoxy-isophthalic acid derivative having a pharmacological activity in thromboembolic disorders” (Societa Italo-Brittanica L. Manetti-H. Roberts & Co., priority 1986, dated 1987).

A short description of data set [1]: Acute toxicity (DL50), rat. Particulars: in vivo, sole administration, seven days observation. An excerpt:
(§1) The compound object of the present invention has been tested to ascertain the acute toxicity, bio-disponibility and interference with the blood platelet function in vitro and in vivo by carrying out tests in all cases in comparison with another molecule, picotamide monohydrate, which is included in the same class of products, and the pharmacological activity of which is already known (see German patent 3113150).
(§2) The compound of the present invention was subjected to acute toxicity tests on two animal species and two administration routes. The animals which are treated per os or endovenously in a sole administration, have been held under observation for seven days after treatment by recording the symptomatology and the number of deaths. The results, referred in the following table, are indicated as the dose which produces the death of 50% of the treated animals (DL50) calculated by statistical method: […]

The subject of data set [2] is platelet aggregation induced with U46619. In words: Blood platelet anti-aggregant activity in vitro on human PRP, U46619. The following applies: ten minutes incubation at 37° C., read-out: IC50 (50% decrease of maximum amplitude of aggregation curve). In kind it is cell-based. As to the method:
(§3) The blood platelet anti-aggregant activity of G619 was studied in comparison with picotamide on human platelet rich plasma (PRP), wherein the platelet aggregation was induced with ADP, collagen, AANa and U46619 after incubation at 37° C. for ten minutes with the compounds under test. The results, indicated as a concentration able to decrease by 50% (IC50) the maximum amplitude of the aggregation curve obtained with control plasma incubated only with the buffer, are the following: […]

In data set [3] the test system is platelet aggregation induced by arachidonic acid. In words: Blood platelet anti-aggregant activity in vivo (arachidonic acid-induced aggregation in PRP of treated rabbits). Also noted: species or system New Zealand rabbits. The following applies: for ED50: Oryctolagus cuniculus, Platelet, 0.5 h, rabbit, gum acacia suspension, blood taken 30 minutes after treatment, arachidonic acid, read-out: ID50 (dose decreasing by 50% the maximum amplitude of the aggregation curve).
Source text: as §1
New Zealand rabbits which had been held fasting for twelve hours with water ad libitum, were administered with G 619 and picotamide monohydrate at various dosages in a gum acacia suspension. To the control rabbits only gum acacia was administered. After 30 minutes from treatment the animals were anaesthetized with sodium pentothal (30 mg/Kg i.v.) and blood was taken from the carotid artery, rendered incoagulable with sodium citrate at 3,8% and centrifuged at 1400 rpm for 15 minutes in order to obtain the platelet rich plasma (PRP). On said PRP the platelet aggregation was induced by arachidonic acid and the corresponding aggregation curve was recorded using a Born aggregometer. The activity is indicated as the dose able to decrease by 50% (ID50) the maximum amplitude (AM) of the aggregation curve of plasma of treated animals with respect to that of plasma from control animals, the following results being obtained: […]

Data set [4] deals with Blood platelet aggregation from ADP. In words: Blood platelet anti-aggregate activity in vitro, ADP-induced aggregation, rabbit PRP. It is filed as cell-based. Particulars: Oryctolagus cuniculus, 10 min, 10 minutes incubation at 37° C., read-out: IC50 (50% decrease of maximum amplitude of aggregation curve).
Source text: as §1
(§4) Platelet aggregation was induced in rabbit "platelet rich plasma" (PRP) by employing as aggregant agents adenosine diphosphate (ADP) and arachidonic acid (AANa) after incubation at 37° C. for 10 minutes with the compounds under test. The activity is expressed as the concentration able to decrease by 50% (IC50) the maximum amplitude (AM) of the aggregation curve so obtained, with respect to the aggregation curve as obtained with control plasmas incubated only with buffers.
(§5) The results of the tests effected with ADP and AANa are hereinafter referred: […]

Data set [5] has as its system production of thromboxane B2 (TxB2). The data set is described as follows: Production of thromboxane B2 (TxB2) in human PRP after stimulation with collagen. It is filed as cell-based. The following applies: collagen 1 μg/ml, TxB2 measured in ug/ml. The protocol: In order to investigate the mechanism of action of G619 the production of malondialdehyde (MDA) and thromboxane B2 (TxB2) after stimulation with collagen 1 μg/ml was measured on human PRP.

Data set [6] has as its system Blood platelet aggregation from AANa. In words: Blood platelet anti-aggregate activity in vitro, arachidonic acid (AANa)-induced aggregation, rabbit PRP. In kind it is cell-based. The following applies: Oryctolagus cuniculus, 10 min, 10 minutes incubation at 37° C., read-out: IC50 (50% decrease of maximum amplitude of aggregation curve).
Source text: as §1, §4, §5

Data set [7] concerns platelet aggregation induced with ADP. In words: Blood platelet anti-aggregant activity in vitro on human PRP, ADP. It is filed as cell-based. Particulars: for IC50: Platelet, ADP, human PRP, ten minutes incubation at 37° C., read-out: IC50 (50% decrease of maximum amplitude of aggregation curve). The protocol: as §3
Data set [8] has as its system platelet aggregation induced with collagen. The data set is described as follows: Blood platelet anti-aggregant activity in vitro on human PRP, collagen. The following applies: ten minutes incubation at 37° C., read-out: IC50 (50% decrease of maximum amplitude of aggregation curve). In kind it is cell-based. As to the method: as §3
Data set [9] can be described thus: Per os absorbtion in rat, plasma levels. Particulars: for concentration at 0.5 h: 1/2 h; for absorbtion, times higher than that of picotamide monohydrate: rat per os. It is filed as in vivo.
Source text: as §1
Per os absorbtion tests have been carried out in rat after a sole administration of 100 mg/Kg in gum acacia suspension. The determinations of the blood levels of the two substances at various times have been effected on plasma using a high pressure liquid phase chromotograph and indicated as γ/ml. The values referred hereinafter represent the average of 8 determinations: […]

Data set [10] deals with platelet aggregation induced in PRP using ADP. The data set is described as follows: Blood platelet anti-aggregant activity on human volounteers (ADP-induced aggregation in PRP). Particulars: 500 mg sole dose per os; for percent inhibition of the aggregation curve: ADP 2×10^-6 M. In kind it is in vivo. The protocol: On healthy human volounteers of both sexes aging from 31 to 53 the blood anti-aggregant activity was evaluated by per os treatment at a 500 mg sole dose, taking the blood samples before treatment and after 1-2-4-6 hours. The platelet aggregation was induced in PRP using ADP as aggregant agent at a concentration of 2×10^-6 M following the method illustrated in example 2. The platelet anti-aggregant activity reported in quantitative terms in the following table, was calculated as percent inhibition of the aggregation curve after treatment with respect to the […]

Data set [11] is described as follows: Acute toxicity (DL50), mouse. Particulars: in vivo, sole administration, seven days observation.
Source text: as §1, §2

Data set [12] has as its system platelet aggregation induced with AANa. The data set is described as follows: Blood platelet anti-aggregant activity in vitro on human PRP, AANa. It is filed as cell-based. Particulars: ten minutes incubation at 37° C., read-out: IC50 (50% decrease of maximum amplitude of aggregation curve). The protocol:
as §3

Data set [13] deals with production of 6-keto-PGFla. The data set is described as follows: Production of 6-keto-PGFla in human PRP after stimulation with collagen. The following applies: collagen 1 ug/ml. In kind it is cell-based. The protocol: The production of 6-keto-PGFla was also measured after stimulation of human PRP with collagen 1 ug/ml.
[14] abbreviates: in vivo, po, rat, 100 mg/Kg per os, gum acacia suspension, average of 8 determinations, read-out: blood level (plasma).

By LD50 is commonly meant the dose at which mortality reaches 50%. Read a high LD50 as lower toxicity. What is called IC50 is the point on the concentration scale where inhibition reaches its midpoint. Turning to `COc1ccc(C(N)=O)cc1C(=O)NCc1cccnc1` [G 619, 3-carbamoyl(3'-picolyl)-4-methoxy-1-benzamide], the LD50 at 168 h in data set [1] (iv) was 450 mg/kg; in data set [1] (po, os), more than 3000 mg/kg; in [11] (iv) it was 400 mg/kg; in data set [11] (po, os), more than 3000 mg/kg. Also, the IC50 was found to be 9.2 µM in data set [2]; 125 µM in data set [4]; 4.6 µM in data set [5]; 26.9 µM in data set [6]; 56 µM in [7]; 11 µM in data set [8]. Further, in data set [12], the IC50 was determined as 4.2 µM. Moreover, in data set [3], the ED50 was found to be 25 mg/kg. In addition, the “activity, times higher than that of picotamide monohydrate” value in data set [3] (rabbit in vivo, ID50) is “about 3 times”. For the same compound, the “power of action, factor higher with respect to picotamide” value in [7] (platelet aggregations induced in human PRP (ADP, collagen, AANa, U46619)) amounted to 10 factor. Besides, in data set [9] (setting [14]), the concentration at 0.5 h came to 26900 ng/mL. Moreover, the concentration at 1 h in data set [9] (setting [14]) came to 20200 ng/mL. Moreover, the concentration at 2 h in data set [9] (setting [14]) was determined as 9400 ng/mL. The concentration at 4 h in data set [9] (in vivo, po, rat, 100 mg/Kg per os, gum acacia suspension, 4 h, average of 8 determinations, read-out: blood level (plasma)) came out at 2100 ng/mL. Besides, the “absorbtion, times higher than that of picotamide monohydrate” value in [9] (1/2 hour) is reported as 8 times; in data set [9] (2 hours), 19 times. The “maximum activity (platelet anti-aggregant)” value in data set [10] (ADP) is on record as 53,8%. Moreover, the “time after treatment of maximum activity” value in data set [10] (ADP) is on record as “two”. In addition, the “percent inhibition of the aggregation curve” value is reported as 38,2% in data set [10] (1 h), 53,8% in data set [10] (2 h), 43,4% in [10] (4 h) and 24,2% in data set [10] (6 h). The activation at 1 µM in data set [13] (starting from concentrations of 10^-6 M, read-out: increase in the production of 6-keto-PGFla) was in the range of 100 to 150%.
In the case of `COc1ccc(C(=O)NCc2cccnc2)cc1C(=O)NCc1cccnc1` [Picotamide monohydrate, N-N'-bis-(3-picolyl)-4-methoxy-isophthalamide monohydrate, reference compound], the median lethal dose (LD50) at 168 h in data set [1] (iv) came out at 190 mg/kg; in [1] (po, os) it was 3000 mg/kg; in data set [11] (iv), 275 mg/kg; in data set [11] (po, os), 3000 mg/kg. Also, the IC50 is 250 µM in data set [2]; 930 µM in [4]; 10 µM in [5]; 79 µM in [6]; 820 µM in data set [7]; 100 µM in data set [8]. Further, the IC50 in data set [12] is 89 µM. In addition, in data set [3], the ED50 was determined as 78 mg/kg. Besides, in data set [9] (setting [14]), the concentration at 0.5 h is 3400 ng/mL. Moreover, the concentration at 1 h in data set [9] (setting [14]) stood at 1200 ng/mL. Also, in data set [9] (setting [14]), the concentration at 2 h is 500 ng/mL. For the same compound, in data set [10] (ADP), the “maximum activity (platelet anti-aggregant)” value was 41,1%. For the same compound, the “percent inhibition of the aggregation curve” value in data set [10] (1 h) was 18,2%; in [10] (2 h), 25,6%; in [10] (4 h), 41,1%; in data set [10] (6 h), 21,5%. For the same compound, the “effect on production of 6-keto-PGFla (in words)” value in [13] (10^-6 M) was “hardly efficient”.
